Laboratory results taken from patent US20120225909A1, “INDAZOLE ANALOG” (priority 2009, published 2012).
Read-outs that look alike come from different tables or passages of the source.

What was measured:
[1] = target: T1, human α1A-adrenergic receptor (Homo sapiens, UniProt P35348); assay: Test Case 4-A: human α1A-adrenergic receptor agonist activity (HEK293, Ca flux, Fura-2); format: cell-based; set-up: expressed in transfected cells; host or cells: HEK293 cells, pcDNA3.1
T1 sequence (P35348 1-466): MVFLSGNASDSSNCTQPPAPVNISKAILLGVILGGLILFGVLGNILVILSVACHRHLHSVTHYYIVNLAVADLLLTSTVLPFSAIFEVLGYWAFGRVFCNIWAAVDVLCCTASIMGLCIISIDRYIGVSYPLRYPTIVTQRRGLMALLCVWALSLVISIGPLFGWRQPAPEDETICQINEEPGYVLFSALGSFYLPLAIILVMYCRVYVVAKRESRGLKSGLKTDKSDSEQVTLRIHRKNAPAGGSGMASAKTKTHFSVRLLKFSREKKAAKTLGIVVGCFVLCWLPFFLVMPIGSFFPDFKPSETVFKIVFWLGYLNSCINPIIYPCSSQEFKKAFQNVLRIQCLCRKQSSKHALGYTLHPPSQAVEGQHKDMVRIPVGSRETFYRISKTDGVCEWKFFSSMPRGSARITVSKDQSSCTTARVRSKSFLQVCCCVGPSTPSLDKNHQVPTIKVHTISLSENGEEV
Method: Measurement of Human α1A-Adrenergic Receptor Agonist Activity
The human α1A-adrenergic receptor agonist activity is measured using HEK293 cells transfected by a human α1A gene inserted in pcDNA3.1 (Invitrogen). […] After loading for 30 minutes in a CO2 incubator, the excess Fura-2AM is removed by washing twice with assay buffer. After preparing the centrifuged cells to make 5×10^6 cells/mL by assay buffer, 80 μL/well is dispensed into 96-well UV plates (made by Corning) to make cell plates. Sample plates with the test compound diluted 10-fold by assay buffer from 10^−5 to 10^−12 M and cell plates are set in an FDSS4000 (made by Hamamatsu Photonics). After preincubating for 180 seconds, measurement of fluorescence intensity (excitation wavelength 340 nm, 380 nm, measurement wavelength 500 nm) is begun at 2-second intervals. After approximately 30 seconds of measurement, 20 μL of test sample from a sample plate is added to the cell plate, and measurement is continued for another 270 seconds. The Ca flux caused by the test compound is calculated taking the difference in the maximum value of the fluorescence intensity ratio at 340 nm and 380 nm after adding the test compound and the fluorescence intensity ratio before adding the test compound as the peak height.

[2] = target: T2, human β3-adrenergic receptor (Homo sapiens, UniProt P13945); assay: Test Case 1-B: human β3-adrenergic receptor agonist activity (cAMP-Screen, 96-well); format: cell-based
T2 construct: A full-length human β3 gene is obtained from a human genomic library (made by Clontech) using this as the probe; expressed in transfected cells; host or cells: CHO (Chinese hamster ovary) cells, pcDNA3
Method: Measurement of Human β3-Adrenergic Receptor Agonist Activity
The human β3-adrenergic receptor agonist activity is measured using CHO (Chinese hamster ovary) cells transfected by a human β3 gene inserted in pcDNA3 (Invitrogen). […] A full-length human β3 gene is obtained from a human genomic library (made by Clontech) using this as the probe. These cells are cultured in Ham's F-12 medium containing 10% fetal calf serum and 400 μg/mL genectin (Invitrogen). These cells are sown in 96-well plates to make 2×10^4 cells/well. After culturing for approximately 20 hours, they are allowed to stand for 15 minutes in 80 μL of serum-free Ham's F-12 medium. After first dissolving the test compound by DMSO, it is serially diluted by Ham's F-12 containing 100 mmol/L HEPES and 1 mmol/L isobutylmethylxanthine, and 20 μL is added to the cells. After culturing for 30 minutes, the medium is removed, and 0.1 mL of the assay/lysis buffer contained in the cAMP-Screen kit (made by Applied Bioscience) is added and incubated for 30 minutes at 37° C. The cAMP in this cell lysate is assayed by the above cAMP-Screen kit.

[3] = Test Case 4-A; maximum response of norepinephrine = 100%; Table 4
[4] = Test Case 1-B; maximum response of isoproterenol = 100%
[5] = 0.5 h; read-out: β3 receptor I.A.
[6] = HEK293; read-out: α1A receptor I.A.
[7] = Test Case 4-A; HEK293 cells, Ca flux; Table 4

T2 sequence (P13945 whole entry): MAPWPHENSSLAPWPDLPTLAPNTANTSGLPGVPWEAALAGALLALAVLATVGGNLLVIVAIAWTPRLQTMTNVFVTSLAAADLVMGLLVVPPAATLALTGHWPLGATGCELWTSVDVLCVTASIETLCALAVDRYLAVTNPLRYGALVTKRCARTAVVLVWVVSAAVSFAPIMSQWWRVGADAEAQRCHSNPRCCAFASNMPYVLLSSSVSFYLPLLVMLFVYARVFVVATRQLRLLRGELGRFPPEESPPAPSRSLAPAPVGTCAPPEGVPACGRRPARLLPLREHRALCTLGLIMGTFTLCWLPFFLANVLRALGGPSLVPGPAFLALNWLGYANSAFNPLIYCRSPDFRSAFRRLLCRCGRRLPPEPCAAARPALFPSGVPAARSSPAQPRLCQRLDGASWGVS

Compound | EC50 ([2]; Test Case 1-B; CHO cells, cAMP) [µM] | Emax [2, 5] [%] | Emax [1, 6] [%] | other results
COc1cccc(S(=O)(=O)Nc2cccc([C@@H](O)CNCCOc3ccc4c(OC)n[nH]c4c3)c2)c1 [ex15, (R)-N-(3-(1-hydroxy-2-(2-(3-methoxyindazol-6-yloxy)ethylamino)ethyl)phenyl)-3-methoxy-b ? sulfonamide] |  |  |  | α1A receptor I.A. [1, 3]: 0%
Nc1cccc(S(=O)(=O)Nc2cc([C@@H](O)CNCCOc3ccc4c(C(F)(F)F)n[nH]c4c3)ccc2Cl)c1 [ex183, (R)-3-amino-N-(2-chloro-5-(1-hydroxy-2-(2-(3-(trifluoro-methyl)-indazol-6-yloxy)ethylamino)ethyl)phenyl)ben-zenesulfonamide] |  |  |  | β3 receptor I.A. [2, 4]: 72%
Cc1n[nH]c2cc(OCCNC[C@H](O)c3cccc(NS(=O)(=O)C4CCCC4)c3)ccc12 [ex237, (R)—N-(3-(1-hydroxy-2-(2-(3-methylindazol-6-yloxy)ethylamino)ethyl)phenyl)cyclopentanesulfonamide] | 0.293 |  |  | Emax ([1]; HEK293, read-out: α1A receptor I.A.): 0%; Emax ([2]; 0.5 h, read-out: β3 receptor I.A.): 58%
Cc1n[nH]c2cc(OCCNC[C@H](O)c3cccc(NS(=O)(=O)c4ccccn4)c3)ccc12 [ex64, (R)-N-(3-(1-hydroxy-2-(2-(3-methylindazol-6-yloxy)ethylamino)ethyl)phenyl)pyridine-2-sulfonamide] | 0.208 | 65 |  | 
O=S(=O)(Nc1cccc([C@@H](O)CNCCOc2ccc3c(C(F)(F)F)n[nH]c3c2)c1)c1ccccc1F [ex189, (R)-2-fluoro-N-(3-(1-hydroxy-2-(2-(3-(trifluoromethyl)-indazol-6-yloxy)ethylamino)ethyl)phenyl)benzene-sulfonamide] | 0.085 | 91 | 1 | 
O=S(=O)(Nc1cccc([C@@H](O)CNCCOc2ccc3c(C4CCC4)n[nH]c3c2)c1)C1CCC1 [ex233, (R)-N-(3-(2-(2-(3- ?] | 0.01 | 73 | 9 | 
CCc1n[nH]c2cc(OCCNC[C@H](O)c3cccc(NS(=O)(=O)C4CCC4)c3)ccc12 [ex150] | 0.0054 | 85 | 61 | EC50 [1, 7]: 1.28 µM
O=S(=O)(Nc1cccc([C@@H](O)CNCCOc2ccc3c(OC(F)F)n[nH]c3c2)c1)c1ccccn1 [ex117, (R)-N-(3-(2-(2-(3-(difluoromethoxy)-indazol-6-yloxy)ethylamino)-1-hydroxyethyl)phenyl)pyridine-2-sulfonamide] |  |  |  | α1A receptor I.A. [1, 3]: 0%; β3 receptor I.A. [2, 4]: 54%
Cc1n[nH]c2cc(OCCNC[C@H](O)c3cccc(NS(=O)(=O)c4c(F)cccc4F)c3)ccc12 [ex69, (R)-2,6-difluoro-N-(3-(1-hydroxy-2-(2-(3-methylindazol-6-yloxy)ethylamino)ethyl)phenyl) benzenesulfonamide] | 0.594 | 72 |  | 
CCc1n[nH]c2cc(OCCNC[C@H](O)c3cccc(NS(=O)(=O)c4cccc(OC)c4)c3)ccc12 [ex120, (R)-N-(3-(2-(2-(3-ethylindazol-6-yloxy)ethylamino)-1-hydroxyethyl)phenyl)-3-methoxybenzene-sulfonamide] | 0.131 | 32 | 0 | 
(R)-N-(3-(1-hydroxy-2- (2-(3-methoxyindazol- 6-yloxy)-ethylamino) ethyl)phenyl)- ? benzenesulfonamide [ex40] |  |  |  | β3 receptor I.A. [2, 4]: 50%
O=S(=O)(Nc1cccc([C@@H](O)CNCCOc2ccc3c(CO)n[nH]c3c2)c1)C1CCC1 [ex243, (R)—N-(3-(1-hydroxy-2-(2-(3-(hydroxymethyl)indazole-6-yloxy)ethylamino)ethyl)phenyl)cyclobutanesulfonamide] | 0.072 | 72 | 89 | EC50 [1, 7]: 0.044 µM
O=S(=O)(Nc1cccc([C@@H](O)CNCCOc2ccc3c(Cl)n[nH]c3c2)c1)C1CCC1 [ex179, (R)-N-(3-(2-(2-(3-chloroindazol-6-yloxy)ethylamino)-1-hydroxyethyl)phenyl)-cyclobutanesul-fonamide] | 0.017 | 93 | 26 | EC50 [1, 7]: 0.436 µM
O=S(=O)(Nc1cccc([C@@H](O)CNCCOc2ccc3c(C4CC4)n[nH]c3c2)c1)C1CC1 [ex227, (R)-N-(3-(2-(2-(3-cyclopropylindazol-6-yloxy)ethylamino)-1-hydroxyethyl)phenyl)-cyclopropane-sulfonamide] | 0.031 |  |  | α1A receptor I.A. [1, 3]: 1%; β3 receptor I.A. [2, 4]: 65%
Cc1n[nH]c2cc(OCCNC[C@H](O)c3cccc(NS(=O)(=O)c4ccc(Cl)cc4)c3)ccc12 [ex52, (R)-4-chloro-N-(3-(1-hydroxy-2-(2-(3-methylindazol-6-yloxy)ethylamino)ethyl)phenyl) benzenesulfonamide] | 0.248 | 62 | 0 | 
CCc1n[nH]c2cc(OCCNC[C@H](O)c3cccc(NS(=O)(=O)c4cccc(Cl)c4)c3)ccc12 [ex119, (R)-3-chloro-N-(3-(2-(2-(3-ethylindazol-6-yloxy)-ethylamino)-1-hydroxyethyl)-phenyl) benzenesulfonamide] | 0.023 | 47 | 0 | 
Cc1n[nH]c2cc(OCCNC[C@H](O)c3cccc(NS(=O)(=O)c4cccc(OC(F)F)c4)c3)ccc12 [ex66, (R)-3-(difluoro-methoxy)-N-(3-(1-hydroxy-2-(2-(3-methylindazol-6-yloxy)ethylamino)ethyl)phenyl) benzenesulfonamide] | 0.291 | 88 |  | 
CCc1n[nH]c2cc(OCCNC[C@H](O)c3cccc(NS(=O)(=O)c4cccnc4)c3)ccc12 [ex121, (R)-N-(3-(2-(2-(3-ethylindazol-6-yloxy)ethylamino)-1-hydroxyethyl)phenyl) pyridine-3-sulfonamide] | 0.0028 | 53 | 0 | 
COc1n[nH]c2cc(OCCNC[C@H](O)c3cccc(NS(=O)(=O)C4CCC4)c3)ccc12 [ex38, (R)-N-(3-(1-hydroxy-2-(2-(3-methoxyindazol-6-yloxy)-ethylamino)ethyl)phenyl)cyclo-butanesulfonamide] | 0.031 | 89 | 75 | EC50 [1, 7]: 0.378 µM
CCc1n[nH]c2cc(OCCNC[C@H](O)c3cccc(NS(=O)(=O)CC(F)(F)F)c3)ccc12 [ex125, (R)-N-(3-(2-(2-(3-ethylindazol-6-yloxy)ethylamino)-1-hydroxyethyl)phenyl)-2,2,2-trifluoro ? sulfonamide] | 0.014 | 34 | 15 | 
Cc1n[nH]c2cc(OCCNC[C@H](O)c3cccc(NS(=O)(=O)c4cccc(C(F)(F)F)c4)c3)ccc12 [ex65, (R)-N-(3-(1-hydroxy-2-(2-(3-methylindazol-6-yloxy)ethylamino)ethyl)phenyl)-3-(trifluoromethyl)-benzenesulfonamide] | 0.579 | 65 |  | 
COc1cccc(S(=O)(=O)Nc2cccc([C@@H](O)CNCCOc3ccc4c(OC)n[nH]c4c3)c2)c1 [ex14, (R)-N-(3-(1-hydroxy-2-(2-(3-methoxyindazol-6-yloxy)ethylamino)ethyl)phenyl)-3-methoxy-b ? sulfonamide] |  |  | 0 | 
Cc1n[nH]c2cc(OCCNC[C@H](O)c3cccc(NS(=O)(=O)c4cc(F)c(F)c(F)c4)c3)ccc12 [ex77, (R)-3,4,5-trifluoro-N-(3-(1-hydroxy-2-(2-(3-methylindazol-6-yloxy)ethylamino)ethyl)phenyl) benzenesulfonamide] |  |  |  | β3 receptor I.A. [2, 4]: 59%
